# Source: patent US11760733B2, “Small molecule regulators of mitochondrial fusion and methods of use thereof” (Washington University, priority 2017, dated 2023)
# How the values were obtained:
# Mfn2 null MEFs = assay: Mitochondrial elongation (aspect ratio) fusogenicity assay; assay type: cell-based, mouse
# Text: A cultured murine embryonic fibroblast assay system was used in which mitochondrial elongation (an increase in aspect ratio) reflects enhanced mitochondrial fusion.
# A pharmacophore model was generated based on the interactions of HR1 and HR2 domains in the calculated structural model of Mfn2 in the closed conformation. The key features included hydrophobic interactions involving Mfn2 HR1: Val372 and Met376, and aromatic interactions and hydrogen bonding involving Mfn2 HR1 His380. […] A library comprising ˜14 million commercially available compounds was prepared in silico and evaluated using PHASE to fit these criteria. Top ranked hits were clustered, and filtered based on pharmacological properties using Qikprop. The top 55 (see TABLE 4) commercially available small molecules conforming to the model were selected for functional screening and purchased in 1 mg aliquots. Each compound was dissolved to a stock concentration of 10 mM in DMSO and applied to Mfn2 null MEFs overnight at a final concentration of 1 mM. […] Images were acquired by confocal microscopy. Each compound was scored for fusogenicity (see e.g., FIG. 24A) and % cell death (see e.g., FIG. 24B).
# Wild-type MEFs were prepared from E10.5 c57/bl6 mouse embryos. […] MEFs were subcultured in DMEM (4.5 g/L glucose) plus 10% fetal bovine serum, 1× nonessential amino acids, 2 mM L-glutamine, 100U/ml penicillin and 100 ug/ml streptomycin.
# Cells were excited with 408 nm (Hoechst), […] (MitoTracker Green and Calcein AM, GFP), or 637 nm (TMRE, MitoTracker Orange, Ethidium homodimer-1, and AF594-Dextran) laser diodes. For mitochondrial elongation studies mitochondrial aspect ratio (long axis/short axis) was calculated using automated edge detection and Image J software. Mitochondrial depolarization was calculated as % of green mitochondria visualized on MitoTracker Green and TMRE merged images, expressed as green/(green+yellow mitochondria)×100.
# [1] = system: MEFs expressing CMT2A mutant MFN2; assay: Mitochondrial dysmorphology in MEFs expressing MFN2 mutants; assay type: cell-based, mouse; settings: MFN2 T105M in MEFs
# Procedure: Fusogenic activity of commercially available small-molecule candidate pharmacophores (TABLE 4), focusing on those having structures that mimicked Ser^378-phosphorylated (class A) and -unphosphorylated (class B) minipeptide amino acid side chains were assessed (see e.g., FIG. 5, TABLE 5). It was reasoned that simultaneous application of class A and B agonists could enhance mitofusin by acting on both MFN2 Ser^378 phosphorylation states. […] Therefore, Cpd A and B functionality were assimilated into a single molecule by creating Cpd A-B chimeras (see e.g., FIG. 11, FIG. 7, TABLE 6). […] On the basis of fluorescence resonance energy transfer (FRET) analysis of MFN2 labeled at the N and C termini, mitofusin agonists promoted an open MFN2 conformation favoring mitochondrial fusion, with a rank order paralleling that for HR2 binding and mitochondrial fusion (see e.g., FIG. 11G; compare to FIG. 11B and FIG. 11C), supporting allosteric activation. […]
# Cells were excited with 408 nm (Hoechst), […] (MitoTracker Green and Calcein AM, GFP), or 637 nm (TMRE, MitoTracker Orange, Ethidium homodimer-1, and AF594-Dextran) laser diodes. For mitochondrial elongation studies mitochondrial aspect ratio (long axis/short axis) was calculated using automated edge detection and Image J software. […]
# [2] = system: ALS and HD patient-derived fibroblasts; assay: Mitochondrial health in ALS and HD patient-derived fibroblasts; assay type: cell-based, human
# Procedure: HD patient-derived fibroblast cell lines (GM04693 from patient and GM05539 from patient) were purchased from Invitrogen. ALS patient-derived fibroblasts (ALS 1: ND29509 from patient having SOD1 mutation; ALS 2: ND30327 having FUS1 mutation) and fibroblasts of control healthy individuals were purchased from Coriell Institute, USA. All fibroblast cultures were maintained in MEM supplemented with 15% (v/v) FBS and 1% (v/v) penicillin/streptomycin at 37° C. in 5% CO2-95% air. Galactose media was used, to increase mitochondria-dependent metabolism oxidative phosphorylation. Human fibroblasts were switched to grow for 48 h in DMEM deprived of glucose and containing galactose (4.5 g/l), 1% FBS, 5 mM sodium pyruvate and 2 mM L-glutamine for the studies.
# Cells cultured in 8-well chamber slides were washed with cold PBS, fixed in 4% formaldehyde, and permeabilized with 0.1% Triton X-100. After incubation with 2% normal goat serum (to block nonspecific staining), fixed cells were incubated overnight at 4° C. with TOM20 antibody (1:500) (Santa Cruz, USA). Cells were washed with PBS and incubated for 60 minutes with FITC-conjugated goat anti-rabbit IgG (1:500 dilution). The cells were then washed gently with PBS and counterstained with Hoechst 33342 (1:10,000 dilution, Molecular Probes) to visualize nuclei. The coverslips were mounted with Slow-fade anti-fade reagent (Invitrogen), and images were acquired at 60× using an All-in-One Fluorescence Microscope BZ-X700 (Keyence).
# Cells were incubated with tetra-methyl-rhodamine methyl ester (TMRM, 25 nM, Invitrogen) in HBSS (Hank's balanced salt solution) for 30 min at 37° C., per the manufacture's protocol, and the fluorescence was analyzed to measure mitochondrial membrane potential. All data were normalized with respect to the fluorescence intensity of control cells. To determine mitochondrial ROS production, cells were treated with 5 μM MitoSOX™ Red, a mitochondrial superoxide indicator (Invitrogen) for 20 min at 37° C., according to the manufacturer's protocol, and fluorescence was analyzed using SpectraMax M2e (Molecular devices).
compound,measurement,setting,value
"CC1CCCCC1NC(=O)NCCSc1nnc(C2CC2)n1-c1ccccc1 (racemic) [B-A/I, 1-(2-((5-cyclopropyl-4-phenyl-4H-1,2,4-triazol-3-yl)thio)ethyl)-3-(2-methylcyclohexyl)urea]","fusogenic activity (mitochondrial elongation), in words",Mfn2 null MEFs,potently stimulated mitochondrial fusion
same,reversal of mitochondrial dysmorphology,[1],as effective as the combination of Cpds A+B
same,mitochondrial structural defects,[2]; ALS and HD fibroblasts,enhances mitochondrial structural defects
same,mitochondrial ROS levels,"[2]; ALS and HD fibroblasts, MitoSOX",reduces mitochondrial ROS levels
same,mitochondrial membrane potential,"[2]; ALS and HD fibroblasts, TMRM",improves mitochondrial membrane potential
same,effect on fibroblasts from control subjects,[2]; control fibroblasts,no effect
